Test system: corn planthopper (Peregrinus maidis)
Assay: Test F: control of corn planthopper through contact and/or systemic means on corn (maize) plant
Assay type: in vivo
Details: sprayed at 250 ppm, nymphs, 6 days, visually assessed
Experimental: Test compounds were formulated using a solution containing 10% acetone, 90% water and 300 ppm X-77™ Spreader Lo-Foam Formula non-ionic surfactant containing alkylarylpolyoxyethylene, free fatty acids, glycols and isopropanol (Loveland Industries, Inc.). The formulated compounds were applied in 1 mL of liquid through a SUJ2 atomizer nozzle with ⅛ JJ custom body (Spraying Systems Co.) positioned 1.27 cm (0.5 inches) above the top of each test unit. All experimental compounds in this screen were sprayed at 250 ppm, replicated three times. After spraying of the formulated test compound, each test unit was allowed to dry for 1 hour and then a black, screened cap was placed on top. The test units were held for 6 days in a growth chamber at 19-21° C. and 50-70% relative humidity. Each test unit was then visually assessed for insect mortality.
For evaluating control of corn planthopper (Peregrinus maidis) through contact and/or systemic means, the test unit consisted of a small open container with a 3-4 day old corn (maize) plant (spike) inside. White sand was added to the top of the soil prior to application. Test compounds were formulated and sprayed at 250 ppm and replicated three times as described for Test C. […] Each test unit was then visually assessed for insect mortality.

Cc1cc(C#N)cc(C(N)=O)c1NC(=O)c1cc(Br)nn1-c1ccccc1Cl [Compound 67]
mortality: at least 80%
